Assay results published in PubChem BioAssay (NCI).
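Following 48 hours of exposure in 96-well plates, responses at five concentrations were used to interpolate endpoints linearly. TGI marks complete inhibition of growth.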 Where a SMILES comes first, the peptide text is derived from it.

Legend:
Experiment in all cases: growth of human tumour cells (NCI), 48 h
786-0 renal = system: 786-0 renal
DU-145 prostate = system: DU-145 prostate
HCC-2998 colon = system: HCC-2998 colon
IGROV1 ovarian = system: IGROV1 ovarian
KM12 colon = system: KM12 colon
LOX IMVI melanoma = system: LOX IMVI melanoma
MALME-3M melanoma = system: MALME-3M melanoma
NCI-H522 lung = system: NCI-H522 lung
OVCAR-8 ovarian = system: OVCAR-8 ovarian
RXF 393 renal = system: RXF 393 renal
SN12C renal = system: SN12C renal
SR leukemia = system: SR leukemia
U251 CNS = system: U251 CNS
UO-31 renal = system: UO-31 renal

Row | SMILES | TGI (786-0 renal) | TGI (DU-145 prostate) | TGI (HCC-2998 colon) | TGI (IGROV1 ovarian) | TGI (KM12 colon) | TGI (LOX IMVI melanoma) | TGI (MALME-3M melanoma) | TGI (NCI-H522 lung) | TGI (OVCAR-8 ovarian) | TGI (RXF 393 renal) | TGI (SN12C renal) | TGI (SR leukemia) | TGI (U251 CNS) | TGI (UO-31 renal)
1 | CCC(C)C(NC(=O)C(CCCCN)NC(=O)C(NC(=O)C(CCC(N)=O)NC(=O)C(N)CCCNC(=N)N)C(C)CC)C(=O)NC(Cc1c[nH]c2ccccc12)C(=O)NC(Cc1ccccc1)C(=O)NC(CCC(N)=O)C(=O)NC(CC(N)=O)C(=O)NC(CCCNC(=N)N)C(=O)NC(CCCNC(=N)N)C(=O)NC(CCSC)C(=O)NC(CCCCN)C(=O)NC(Cc1c[nH]c2ccccc12)C(=O)NC(CCCCN)C(=O)NC(CCCCN)C(=O)N1CCCC1C(=O)NC(C)C(=O)NC(CCCCN)C(=O)NC(CCCNC(=N)N)C(=O)NC(CCCCN)C(=O)NC(CC(C)C)C(=O)NC(Cc1ccccc1)C(=O)NCC(=O)O (stereo not given) (H-RQIKIWFQNRRMKWKKPAKRKLFG-OH; configuration not given here) | > 25 µM | > 25 µM | > 25 µM | > 25 µM | > 25 µM | > 25 µM | 18.3 µM | > 25 µM | > 25 µM | > 25 µM | > 25 µM | > 25 µM | > 25 µM | > 25 µM
2 | NS(=O)(=O)c1ccc(-n2c(-c3cccs3)nc3ccc(I)cc3c2=O)cc1 | 77.8 µM | 35.9 µM | 39.9 µM | 56 µM | 59.3 µM | 37 µM | 43.2 µM | 39.1 µM | > 100 µM | 88.9 µM | 98.9 µM | > 100 µM | 48.8 µM | 42.6 µM
3 | CN(C)C1=Nc2ccccc2C(=S)N2CSCC12 (stereo not given) | 62.2 µM | > 100 µM | > 100 µM | 52.3 µM | > 100 µM | > 100 µM | 51.8 µM | 29 µM | > 100 µM | > 100 µM | > 100 µM | 48 µM | > 100 µM | > 100 µM
4 | C=CCNC1=C2C[C@@H](C)C[C@@H](OC)[C@@H](OC(=O)CCCN)[C@H](C)/C=C(\C)[C@@H](OC(N)=O)[C@H](OC)/C=C\C=C(/C)C(=O)NC(=CC1=O)C2=O | 42.2 µM | 38.3 µM | 32.9 µM | 30.1 µM | 19.2 µM | > 47.3 µM | 27.8 µM | 26.4 µM | 42.5 µM | 42.2 µM | 44.2 µM | > 79 µM | > 50.4 µM | 34.2 µM
5 | COc1ccc(CCNC2=CC(=O)c3ncccc3C2=O)cc1OC | 21.2 µM | 3.57 µM | 4.68 µM | 7.63 µM | > 75.2 µM | 3.14 µM | 2.03 µM | 8.36 µM | 17.2 µM | 15.2 µM | 3.59 µM | > 79.8 µM | 14 µM | 13.1 µM
6 | N#CC(NNC(=O)Cc1ccccc1)c1ccccc1O (stereo not given) | 72.5 µM | > 74.6 µM | 56.1 µM | > 100 µM | > 100 µM | 31.5 µM | 73.4 µM | > 41.1 µM | 99.2 µM | > 100 µM | > 100 µM | 70.7 µM | > 92 µM | 25.4 µM
7 | CC12CCC(C(=O)OC1=O)C2(C)C (stereo not given) | > 100 µM | > 100 µM | > 100 µM | > 100 µM | > 100 µM | > 100 µM | > 100 µM | > 100 µM | > 100 µM | > 100 µM | > 100 µM | 64.3 µM | > 100 µM | > 100 µM
8 | CC1(C)c2ccccc2C(=O)C12CCC(=O)CC2 | > 100 µM | > 100 µM | > 100 µM | > 100 µM | > 100 µM | > 100 µM | > 100 µM | > 100 µM | > 100 µM | 96 µM | > 100 µM | > 100 µM | > 100 µM | > 100 µM
9 | O=C(CC(c1ccccc1)N1CCCCC1)c1ccccc1 (stereo not given) | 25.9 µM | 32.3 µM | 15.6 µM | 29.1 µM | 22.6 µM | 20.6 µM | 30.7 µM | 28.6 µM | 33.4 µM | 33.6 µM | 32.6 µM | 6.15 µM | 21.9 µM | 36.8 µM
10 | O=C(O)c1nc(-c2ccccn2)c(-c2ccccn2)nc1C(=O)O | 13.2 µM | 12.1 µM | 3.45 µM | 21 µM | 17.9 µM | 16.7 µM | 7.85 µM | 23.2 µM | 21.2 µM | 9.71 µM | 24.6 µM | 9.91 µM | 13.3 µM | 8.15 µM
11 | CCOC(=O)C(N)CSC(=O)NC (stereo not given) | 201 µM | 597 µM | 644 µM | 481 µM | 460 µM | 133 µM | 306 µM | 472 µM | 314 µM | 337 µM | 213 µM | 158 µM | 347 µM | 602 µM
12 | CCN(CC)c1ccc2cc(-c3nnc(-c4ccccc4)o3)c(=O)oc2c1 | > 82.1 µM | > 100 µM | > 46.3 µM | > 80.8 µM | > 100 µM | > 100 µM | > 100 µM | > 100 µM | 98.4 µM | > 52.5 µM | > 100 µM | > 100 µM | > 100 µM | > 100 µM
13 | CCN(CC)/C(Cl)=C(Cl)\C(=C1\Nc2ccc(OC)cc21)[N+](=O)[O-] | > 100 µM | > 100 µM | > 100 µM | > 100 µM | > 100 µM | > 100 µM | > 100 µM | 67.3 µM | > 100 µM | 72.9 µM | > 100 µM | 65 µM | > 100 µM | > 100 µM
14 | Cc1cn(C2CC(ON3C(=O)c4ccccc4C3=O)C(CO)O2)c(=O)[nH]c1=O (stereo not given) | > 10 µM | > 10 µM | > 10 µM | > 10 µM | > 10 µM | > 10 µM | > 10 µM | > 10 µM | > 10 µM | > 10 µM | > 10 µM | > 10 µM | > 10 µM | > 10 µM
15 | CC1(C)OCC2OC3(c4nc(C#N)c(N)o4)OC(C)(C)OC3C2O1 (stereo not given) | > 100 µM | > 100 µM | > 100 µM | > 100 µM | > 100 µM | > 100 µM | > 100 µM | > 100 µM | > 100 µM | > 100 µM | > 100 µM | > 100 µM | > 100 µM | > 100 µM
16 | N#Cc1sc2nc(/C=C3/C=CC=CC3=O)c(O)n2c1N | > 100 µM | > 100 µM | > 100 µM | > 100 µM | > 100 µM | > 100 µM | > 100 µM | > 100 µM | > 100 µM | > 100 µM | > 100 µM | 60.3 µM | > 100 µM | > 100 µM
17 | COC(=O)C1=C(C)NC(C)=C(C(=O)OC)C1c1ccc(/[N+]([O-])=C/c2ccccc2)cc1 | 33.3 µM | > 100 µM | > 100 µM | > 100 µM | > 100 µM | > 100 µM | 31.3 µM | 27.9 µM | 46.2 µM | 41.1 µM | > 100 µM | 80 µM | > 100 µM | > 100 µM
18 | O=c1cc(-c2ccccc2)[nH]c2cc3c(cc12)OCO3 | > 93 µM | > 100 µM | 55.6 µM | > 100 µM | > 93.1 µM | > 100 µM | > 82.9 µM | 13.4 µM | > 100 µM | 17.2 µM | > 100 µM | 67.4 µM | > 82.3 µM | > 100 µM
19 | CCN(CC)CCn1nc(N)c2nc3cc(Cl)ccc3nc21 | > 100 µM | > 100 µM | > 100 µM | 52.8 µM | > 100 µM | > 100 µM | > 100 µM | > 100 µM | > 100 µM | > 100 µM | > 100 µM | > 100 µM | > 100 µM | > 100 µM
20 | CCN1c2nc3ccccc3nc2N(CC)c2nc3ccccc3nc21 | > 100 µM | > 100 µM | > 100 µM | > 100 µM | > 100 µM | > 100 µM | > 100 µM | > 100 µM | > 100 µM | > 100 µM | > 100 µM | > 100 µM | > 100 µM | > 100 µM
